Assays:
[1] = biological target: human recombinant GABA A receptor containing the alpha2, beta2, and gamma2 subunits (Homo sapiens (Human), UniProt P18507+P47869); assay: Radioligand competition binding assay with [3H]Ro-15-1788 (Flumazenil); settings: [3H]flumazenil competition, HEK cell membranes, geometric mean of at least two replicates; read-out: GABA-α2 Ki
Protocol: The affinity of the test compounds was determined by radioligand competition binding assay, using the known compound [3H]Ro-15-1788 (Flumazenil) (Perkin Elmer, 85.4 Ci/mmol) and the human recombinant GABA A receptor containing the alpha2, beta2, and gamma2 subunits.
Membranes were prepared from HEK cells expressing hGABA A alpha2beta2-gamma2 receptor, and validated to ascertain protein concentration, receptor expression and to determine the Kd of the flumazenil as well as the Ki of a standard set of compounds before being used to test new compounds.
The assay was carried out in 96 well plates; testing compounds using a 10 point semi-log dilution range from 19 uM top concentration. 100 ul of radioligand and 100 ul of membrane in 50 mM Tris-HCl and 0.05% F127 with 1 ul of test compound was incubated for 2 hours to allow the reaction to achieve equilibrium, and then harvested onto filter plates, dried and counted on a TopCount NXT. The data was analysed, and the Ki values were presented as the geometric mean of at least two replicates.

[2] = biological target: GABRA2-GABRB2-GABRG2 chloride currents in HEK cells (Homo sapiens (Human), UniProt P18507+P47869); assay: QPatch electrophysiological recording, % enhancement of GABA current (α2 PAM); assay type: cell-based; settings: % enhancement of GABA current at approximately EC10 GABA, −60 mV, whole-cell patch clamp
Protocol: Human Embryonic Kidney (HEK) cells were transfected with a GABRA2-GABRB2-GABRG2 construct using standard techniques. Cells stably expressing the GABRA2-GABRB2-GABRG2 constructs were identified by their resistance to Geneticin G-418 (320 μg/ml), Hygromycin (160 μg/ml) and Zeocin (40 μg/ml). Clones were screened for expression using the BD Pathway 855 imaging system (BD Biosciences, Rockville, Md., USA) and QPatch automated electrophysiology platform (Sophion, Copenhagen, Denmark). […]
GABRA2-GABRB2-GABRG2 chloride currents in HEK cells were measured using the whole-cell configuration of the patch-clamp technique (Hamill et al., 1981). […]
All compounds were dissolved in dimethyl sulfoxide to make 30 mM or 10 mM stock solutions, which were then diluted to 1000 times the desired final concentration in dimethyl sulfoxide. […] Currents were recorded at −60 mV, using an approximately EC10 concentration of gamma-aminobutyric acid (GABA). […]
Compound effect (% enhancement of gamma-aminobutyric acid current) was calculated using the following formula: [((peak modulator current amplitude-leak)−(GABA current amplitude-leak))/(GABA current amplitude-leak)]*100, […]

[3] = biological target: GABRA1-GABRB3-GABRG2 construct in HEK cells (Homo sapiens (Human), UniProt P14867+P18507); assay: QPatch electrophysiological recording, % enhancement of GABA current (α1 PAM); assay type: cell-based; settings: % enhancement of GABA current at approximately EC10 GABA, −60 mV, whole-cell patch clamp

Compound | Ki [1] [µM] | α2 PAM [2] [%] | α1 PAM [3] [%]
CCn1ncc2c(-c3ccc(F)c(-c4ccc(S(=O)(=O)CC)cc4OC)c3)cnnc21 [Example 1, 4-(4′-Ethanesulfonyl-6-fluoro-2′-methoxybiphenyl-3-yl)-1-ethyl-1H-pyrazolo[3,4-c]pyridazine] | < 0.0006 | 109 | 18
CCn1ncc2c(-c3ccc(F)c(-c4ccc(S(=O)(=O)CC)cc4)c3)cnnc21 [Example 2, 4-(4′-Ethanesulfonyl-6-fluorobiphenyl-3-yl)-1-ethyl-1H-pyrazolo[3,4-c]pyridazine] | 0.0175 | 109 | 52

Reference: patent US10538523B2, “4-(biphen-3-yl)-1H-pyrazolo[3,4-c]pyridazine derivatives of formula (I) as GABA receptor modulators for use in the treatment of epilepsy and pain” (PFIZER LIMITED, priority 2015, dated 2020)
